{"source": "patent US20110129868A1", "about": "“CELL CAPABLE OF REPLICATING NOVEL HCV REPLICON, CELL CAPABLE OF REPLICATING FULL-LENGTH HCV RNA, AND USE OF THOSE CELLS” (priority 2008, published 2011)", "key": {"[1]": {"test_system": "full-length HCV RNA replication in ORL11 cells", "assay": "microbe, parasite or virus in culture", "assay_type": "cell-based, HCV-O strain (genotype 1b)", "details": "for measured luciferase activity value: 24 hours after the addition, 750,000 without IFN-α", "protocol": "(§1) Renilla luciferase was quantified by collecting cells using a Renilla Luciferase Assay System (Promega) according to the manufacturer's experiment protocol.\n(§2) Luciferase activity of each cell line was then measured at hour 24, 48, and 72. […] SD values were calculated based on the results from three samples at each point. […]"}, "[2]": {"test_system": "full-length HCV RNA replication in ORL8 cells", "assay": "microbe, parasite or virus in culture", "assay_type": "cell-based, HCV-O strain (genotype 1b)", "details": "ORL8 cells; for measured luciferase activity value: 24 hours after the addition, 380,000 without IFN-α", "protocol": "as §1, §2"}, "[3]": {"test_system": "full-length HCV RNA replication in OR6 cells", "assay": "microbe, parasite or virus in culture", "assay_type": "cell-based, HCV-O strain (genotype 1b)", "details": "OR6 cells", "source_text": "as §1\nAn OR6-cell assay system was used as a control."}, "[4]": {"test_system": "HCV replicon RNA replication in sORL8 (pool) cells", "assay": "luciferase reporter assay using sORL8 (pool) cells", "assay_type": "cell-based, HCV-O strain (genotype 1b)", "details": "luciferase activity after 72 hours", "source_text": "as §1\n(§3) In the ORN/3-5B/QR, KE, SR (replicon RNA)-introduced OL8c and OL11c cells, G418-resistant cells filled the dish in 2 weeks (FIG. 9). Because the whole cells were estimated to be several tens of thousands of colonies, the G418-resistant cells were mixed without cloning, and used as reporter gene-carrying replicon-replicating cells (sORL8 (pool) cells and sORL11 (pool) cells). These cells had luciferase activities measuring 8×10^5 and 15×10^5, respectively, in terms of actual measurement values per 2×10^5 cells (Promega assay kit). […] Note that the doubling time of the cells using a common subculture medium (in the presence of G418) was calculated as 53 hours and 40 hours. It was also confirmed that the replicon RNA in these cells were not incorporated into the host DNA (the results are not presented).\n(§4) The same experiments were conducted using sORL8 (pool) cells and sORL11 (pool) cells."}, "[5]": {"test_system": "HCV replicon RNA replication in sORL11 (pool) cells", "assay": "luciferase reporter assay using sORL11 (pool) cells", "assay_type": "cell-based, HCV-O strain (genotype 1b)", "details": "luciferase activity after 72 hours", "source_text": "as §1, §3, §4"}, "[6]": {"test_system": "ORL8 cells", "assay": "cell count by trypan blue staining, ORL8 cells", "assay_type": "cell-based, human", "details": "drug at the concentration corresponding to the EC50 value"}, "[7]": {"test_system": "ORL11 cells", "assay": "cell count by trypan blue staining, ORL11 cells", "assay_type": "cell-based, human"}, "[8]": {"test_system": "OR6 cells", "assay": "cell count by trypan blue staining, OR6 cells", "assay_type": "cell-based, human", "details": "drug at the concentration corresponding to the EC50 value"}, "[9]": {"test_system": "full-length HCV RNA replication in OL8, OL11, and OL14 cells", "details": "IFN-α 50, 100, or 200 IU/ml every 4 days; 25 days; as in O cells", "source_text": "The colonies that appeared as G418 resistant cells were stained with CBB solution (FIG. 7). […] No G418-resistant cell colonies were obtained in OL14 cells."}, "[10]": {"test_system": "full-length HCV RNA replication in 1B-4RL8 cells", "assay": "luciferase activity and HCV RNA level in 1B-4RL8 cells", "assay_type": "cell-based, HCV strain 1B-4 (genotype 1b)", "details": "24 hours after the addition of IFN-α (1, 10, 100 IU/ml)", "protocol": "(§5) Total RNA was extracted from the HCV RNA replicating cells using an RNeasy Mini Kit (Qiagen) according to the manufacturer's experiment protocol. First, using 2 μg of RNA as a template, reverse transcription (RT) reaction was performed with SuperScript™ II reverse transcriptase (Invitrogen) and the primer 319R below according to the manufacturer's experiment protocol. HCV RNA was quantified by real-time LightCycler PCR, using the resulting cDNA as a template. Real-Time LightCycler PCR was performed based on the method previously reported by the present inventors (reference: Acta Med. Okayama 56, 107-110, 2002), using the primers 104 and 197R below.\nas §1\n(§6) The 1B-4RL8 and KAH5RL8 cells were examined with regard to a possible correlation between luciferase activity and HCV RNA level (FIG. 49). The graphs on the left represent the measured luciferase activities 24 hours after the addition of IFN-α (0, 1, 10, 100 IU/ml) to the 1B-4RL8 and KAH5RL8 cells (each cultured for 2 days after inoculating 2×10^4 cells in a 24-well plate). Measurements were made in at least 3 wells at each point. A one hundred percent measurement value of 300,000 was obtained for the 1B-4RL8 and KAH5RL8 cells. […]"}, "[11]": {"test_system": "full-length HCV RNA replication in KAH5RL8 cells", "assay": "luciferase activity and HCV RNA level in KAH5RL8 cells", "assay_type": "cell-based, HCV strain KAH5 (genotype 1b)", "details": "24 hours after the addition of IFN-α (1, 10, 100 IU/ml)", "protocol": "as §5, §1, §6"}, "[12]": {"details": "24 hours after the addition of IFN-α (1, 10, 100 IU/ml)"}, "[13]": {"details": "drug concentrations based on the EC50 values"}}, "data": [{"substance": "IFN-α", "values": [{"measurement": "measured luciferase activity value", "setting": "[1]; 1 IU/ml IFN-α", "result": "300,000"}, {"measurement": "measured luciferase activity value", "setting": "[1]; 10 IU/ml IFN-α", "result": "76,000"}, {"measurement": "measured luciferase activity value", "setting": "[1]; 100 IU/ml IFN-α", "result": "27,000"}, {"measurement": "luciferase activity and HCV RNA level", "setting": "[1]; [12]", "result": "decreased in a manner that depended on IFN-α concentration"}, {"measurement": "luciferase activity after treatment (single agent or combined use)", "setting": "[1]; IFN-α at 0.25 IU/ml, ribavirin at 12.5 W", "result": 48, "unit": "%"}, {"measurement": "luciferase activity after treatment (single agent or combined use)", "setting": "[1]; [13]", "result": 41, "unit": "%"}, {"measurement": "luciferase activity and HCV RNA level", "setting": "[2]; [12]", "result": "decreased in a manner that depended on IFN-α concentration"}, {"measurement": "luciferase activity after treatment (single agent or combined use)", "setting": "[2]; IFN-α at 0.25 IU/ml, ribavirin", "result": 26, "unit": "%"}, {"measurement": "measured luciferase activity value", "setting": "[2]; addition of 1 IU/ml IFN-α", "result": "113,000"}, {"measurement": "measured luciferase activity value", "setting": "[2]; addition of 10 IU/ml IFN-α", "result": "36,000"}, {"measurement": "measured luciferase activity value", "setting": "[2]; addition of 100 IU/ml IFN-α", "result": "19,000"}, {"measurement": "luciferase activity after treatment (single agent or combined use)", "setting": "[2]; [13]", "result": 50, "unit": "%"}, {"measurement": "luciferase activity after treatment (single agent or combined use)", "setting": "[3]; IFN-α at 0.25 IU/ml, ribavirin", "result": 75, "unit": "%"}, {"measurement": "luciferase activity after treatment (single agent or combined use)", "setting": "[3]; [13]", "result": 67, "unit": "%"}, {"measurement": "EC50", "setting": "[3]; luciferase activity after 72 hours", "result": 0.40, "unit": "IU/ml"}, {"measurement": "EC50", "setting": "[4]", "result": 0.14, "unit": "IU/ml"}, {"measurement": "EC50", "setting": "[5]", "result": 0.25, "unit": "IU/ml"}, {"measurement": "cell count over the control cells", "setting": "[6]", "result": "≥ 95", "unit": "%"}, {"measurement": "cell count over the control cells", "setting": "[7]", "result": "≥ 95", "unit": "%"}, {"measurement": "cell count over the control cells", "setting": "[8]", "result": "≥ 95", "unit": "%"}, {"measurement": "sensitivity of full-length HCV RNA replication (G418-resistant colonies)", "setting": "[9]", "result": "highly sensitive"}, {"measurement": "luciferase activity and HCV RNA level", "setting": "[10]", "result": "decreased in a manner that depended on IFN-α concentration"}, {"measurement": "luciferase activity and HCV RNA level", "setting": "[11]", "result": "decreased in a manner that depended on IFN-α concentration"}]}]}
